Data as given in patent publication EP3319959B1, “HETERO-HALO INHIBITORS OF HISTONE DEACETYLASE” (Alkermes, Inc., priority 2015, dated 2017).

Columns and labels:
recombinant human HDACs = test: HDAC enzymatic assay (LabChip capillary electrophoresis); type: biochemical; conditions: 5 nM HDAC enzyme, 1 uM substrate, 5 hours pre-incubation, 17 hours reaction at 25°C; isoform not given
Description: All recombinant human HDACs were purchased from BPS Bioscience. The substrate, FAM-TSRHK(AC)KL-CONH, was synthesized at NanoSyn. Final assay reactions contained 100 mM HEPES (pH 7.5), 50 mM KCl, 0.1% BSA, 0.01% Triton X-100, 1% DMSO, 1 uM substrate and 5 nM HDAC enzyme. Enzyme and compounds were pre-incubated at 25°C for 5 hours and reactions were initiated by addition of substrate. 10 uL reactions were incubated for 17 hours at 25°C and terminated by the addition of 40 uL of buffer containing 100 mM HEPES (pH 7.5), 0.1% BSA, 0.01% Triton X-100 and 0.05% SDS. Substrate and product peptides present in each sample were separated electrophoretically using the LabChip 3000 capillary electrophoresis instrument. Change in the relative fluorescence intensity of the substrate and product peaks reflects enzyme activity. Reaction progress was determined as the product to sum ratio (PSR): P/(S+P), where P is the peak height of the product peptide and S is the peak height of the substrate peptide. Reactions were performed in duplicate at 12 concentrations, (3X serial dilutions starting at 30 uM). IC50 values were calculated using a 4 Parameter Logistic Model.

SH-SY5Y cells = test: Cell assay in SH-SY5Y cells with HDAC-Glo 2 reagent; type: cell-based; conditions: Homo sapiens, 5 h, five hours at 37°C, CI-994 at 100 uM defined as 100% inhibition
Description: SH-SY5Y cells (Sigma) were cultured in Eagle's Modified Essential Medium supplemented with 10% fetal bovine serum and pen/strep. Twenty-four hours prior to compound dosing 20 uL of cells were plated in white 384 well plates at a density of 1,500 cells/well. Compounds were serially diluted in neat DMSO and then diluted 1:100 v/v into media without FBS and mixed. Media was removed from the plated cells and the diluted compounds in serum free media (1% v/v final DMSO) were added and incubated at 37°C for five hours. Ten uL of HDAC-Glo 2 reagent with 0.1% Triton X-100 was then added, the plate was mixed and allowed to develop at room temperature for 100 minutes. Plates were then read with a Spectramax LMax luminometer employing a 0.4s integration time. Dose response curves were constructed with normalized data where CI-994 at 100 uM was defined as 100% inhibition and DMSO alone as 0% inhibition. Table 5. IC50 and EC50 Values for Exemplary Compounds Useful in the Invention

| Compound | IC50 (recombinant human HDACs) [nM] | EC50 (SH-SY5Y cells) [nM] |
| --- | --- | --- |
| CN(C)Cc1cnc2c(c1)CN(C(=O)Nc1nc(-c3cccnc3)ccc1N)C2 [Compound 161] | 100 to 500 | 100 to 500 |
| CN(C)Cc1cc2c(cn1)CN(C(=O)Nc1nc(-c3ccc(F)cc3)ccc1N)C2 [Compound 162] | 100 to 500 | 100 to 500 |
| COCc1cc2c(cn1)CN(C(=O)Nc1nc(-c3ccc(F)cc3)ccc1N)C2 [Compound 243] | 100 to 500 | 500 to 5000 |
| CN1CC=C(c2cnc3c(c2)CN(C(=O)Nc2nc(-c4cccs4)ccc2N)C3)CC1 [Compound 251] | 100 to 500 | 100 to 500 |
| CN1CCC(c2cnc3c(c2)CN(C(=O)Nc2nc(-c4ccc(F)cc4)ccc2N)C3)CC1 [Compound 252] | 100 to 500 | 100 to 500 |
| CN1CC=C(c2cnc3c(c2)CN(C(=O)Nc2nc(-c4ccc(F)cc4)ccc2N)C3)CC1 [Compound 253] | 100 to 500 | 100 to 500 |
| Cn1cc2c(n1)CN(C(=O)Nc1nc(-c3ccc(F)cc3)ccc1N)C2 [Compound 257] | 100 to 500 | 100 to 500 |
| Nc1ccc(-c2ccc(F)cc2)nc1NC(=O)N1Cc2cnc(CN3CC(F)(F)C3)cc2C1 [Compound 266] | 500 to 5000 | 500 to 5000 |
| Nc1ccc(-c2ccc(F)cc2)nc1NC(=O)N1C[C@@H]2[C@H](C1)[C@H]2NC1COC1 [Compound 267] | > 5000 | > 5000 |
| Nc1ccc(-c2ccc(F)cc2)nc1NC(=O)N1C[C@@H]2[C@@H](CN3CCC3)[C@@H]2C1 [Compound 270] | > 5000 | > 5000 |
| Nc1ccc(-c2ccc(F)cc2)nc1NC(=O)N1Cc2cc(CN3CC(F)(F)C3)cnc2C1 [Compound 271] | 500 to 5000 | 500 to 5000 |
| CC(C)Cc1cnc2c(c1)CN(C(=O)Nc1nc(-c3ccc(F)cc3)ccc1N)C2 [Compound 274] | 100 to 500 | 100 to 500 |
| Nc1ccc(-c2ccc(F)cc2)nc1NC(=O)N1Cc2cc(CN3CC(F)C3)cnc2C1 [Compound 275] | 100 to 500 | 100 to 500 |
| COC[C@@H]1[C@H]2CN(C(=O)Nc3nc(-c4ccc(F)cc4)ccc3N)C[C@@H]12 [Compound 276] | 500 to 5000 | 500 to 5000 |
| Nc1ccc(-c2ccc(F)cc2)nc1NC(=O)N1Cc2ccc(CO)cc2C1 [Compound 366] | 100 to 500 | 500 to 5000 |
| CN(C)Cc1ccc2c(c1)CN(C(=O)Nc1nc(-c3ccc(F)cc3)ccc1N)C2 [Compound 371] | 100 to 500 | 500 to 5000 |
| Nc1ccc(-c2ccc(F)cc2)nc1NC(=O)N1Cc2ccncc2C1 [Compound 373] | 100 to 500 | 500 to 5000 |

The remaining lines, values ahead:

| IC50 (recombinant human HDACs) [nM] | EC50 (SH-SY5Y cells) [nM] | Compound |
| --- | --- | --- |
| 100 to 500 | 100 to 500 | CN1CCc2sc(C(=O)Nc3nc(-c4ccco4)ccc3N)nc2C1 [Compound 163] |
| 100 to 500 | 100 to 500 | CN1CCC(c2cnc3c(c2)CN(C(=O)Nc2nc(-c4cccs4)ccc2N)C3)CC1 [Compound 250] |
| 500 to 5000 | 500 to 5000 | Cn1ncc2c1CN(C(=O)Nc1nc(-c3ccc(F)cc3)ccc1N)C2 [Compound 258] |
| 500 to 5000 | 500 to 5000 | CN1CCC(c2cnc3c(c2)CN(C(=O)Nc2nc(-c4cccnc4)ccc2N)C3)CC1 [Compound 265] |
| > 5000 | > 5000 | CN1CC(CN2C[C@@H]3[C@H](C2)[C@H]3C(=O)Nc2nc(-c3ccc(F)cc3)ccc2N)C1 [Compound 268] |
| > 5000 | > 5000 | CN1CCN(C[C@@H]2[C@H]3CN(C(=O)Nc4nc(-c5ccc(F)cc5)ccc4N)C[C@@H]23)CC1 [Compound 269] |
| 100 to 500 | 100 to 500 | Nc1ccc(-c2ccc(F)cc2)nc1NC(=O)N1Cc2cc(CN3CCC3)cnc2C1 [Compound 272] |
| 100 to 500 | 100 to 500 | Nc1ccc(-c2ccc(F)cc2)nc1NC(=O)N1Cc2cc(CN3CCC(F)(F)C3)cnc2C1 [Compound 273] |
| 500 to 5000 | 500 to 5000 | Nc1ccc(-c2ccc(F)cc2)nc1NC(=O)N1Cc2cncnc2C1 [Compound 277] |
| 100 to 500 | 500 to 5000 | CN1CCN(Cc2ccc3c(c2)CN(C(=O)Nc2nc(-c4ccc(F)cc4)ccc2N)C3)CC1 [Compound 367] |
